This is an account of results in US20240116985A1, “STAPLED PEPTIDES AND METHODS THEREOF” (priority 2020, published 2024).

This experiment addresses T1, full-length beta-Catenin (Uniprot ID P35222) (Homo sapiens, UniProt P35222).
T1 construct: 10 nM full-length beta-Catenin (Uniprot ID P35222)
T1 sequence (P35222 1-781): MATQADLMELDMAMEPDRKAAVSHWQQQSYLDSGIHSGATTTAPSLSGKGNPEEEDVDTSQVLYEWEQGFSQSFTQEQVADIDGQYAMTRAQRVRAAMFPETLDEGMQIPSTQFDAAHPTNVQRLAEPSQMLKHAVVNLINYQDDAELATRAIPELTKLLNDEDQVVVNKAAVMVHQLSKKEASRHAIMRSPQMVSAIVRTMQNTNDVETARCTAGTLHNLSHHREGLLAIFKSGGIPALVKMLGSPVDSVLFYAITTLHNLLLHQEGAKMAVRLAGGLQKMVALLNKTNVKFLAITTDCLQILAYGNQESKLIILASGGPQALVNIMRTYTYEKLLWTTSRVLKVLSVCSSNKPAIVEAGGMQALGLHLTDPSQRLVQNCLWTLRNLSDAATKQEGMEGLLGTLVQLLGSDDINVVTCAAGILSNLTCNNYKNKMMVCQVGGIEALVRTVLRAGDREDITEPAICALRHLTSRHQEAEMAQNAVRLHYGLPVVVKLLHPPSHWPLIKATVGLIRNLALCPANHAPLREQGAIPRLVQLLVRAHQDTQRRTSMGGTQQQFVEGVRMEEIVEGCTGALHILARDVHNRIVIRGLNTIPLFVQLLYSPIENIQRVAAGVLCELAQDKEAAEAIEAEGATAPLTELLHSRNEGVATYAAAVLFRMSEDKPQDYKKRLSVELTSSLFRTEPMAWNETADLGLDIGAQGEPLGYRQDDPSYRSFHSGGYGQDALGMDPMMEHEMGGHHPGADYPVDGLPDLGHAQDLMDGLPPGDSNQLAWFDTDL
In words: Fluorescence polarization IC50 (beta-catenin / 5FAM-TCF4 10-53 competition). It is filed as binding. The following applies: fluorescence polarization; read-out: beta-Catenin FP IC50. In general terms: In fluorescence polarisation assays a small probe gives low polarisation when free and higher when bound to something large.

pIC50: −log10 of the molar value.

As usually defined, the pIC50 is −log10 of the IC50, conventionally taken in molar units. In the case of `CC(=O)N1CCC[C@]12CC=CCCCC1(CCCC=CCCCOC(=O)N3CC[C@@](C(=O)N[C@@H](Cc4ccsc4)C(=O)N[C@@H](Cc4csc5ccccc45)C(=O)N[C@@H](CCC(N)=O)C(=O)N[C@@H](C)CO)(C3)NC(=O)[C@H](CC(C)C)NC(=O)[C@H](Cc3ccccc3)NC(=O)[C@H](C)NC(=O)[C@H](C)NC(=O)[C@H](CN(CC(=O)O)CC(F)(F)F)NC(=O)[C@H](CC(=O)O)NC1=O)NC(=O)[C@H](CC(C)(C)C)NC(=O)[C@H](CC(=O)O)NC2=O` (stereo partly drawn) [I-1679, Ac-PL3-Asp-Npg-B5-Asp-TfeGA-Ala-Ala-Phe-Leu-PyrS2-3Thi-BztA-Gln-Alao1], the negative logarithm of the IC50 (pIC50) was 7.76.

Regarding `CC(=O)N1CCC[C@]12CC=CCCCC1(CCCC=CCCCOC(=O)N3CC[C@@](C(=O)N[C@@H](Cc4ccsc4)C(=O)N[C@@H](Cc4csc5ccccc45)C(=O)N[C@@H](CCC(N)=O)C(=O)N[C@H](CO)CC(C)C)(C3)NC(=O)[C@H](CC(C)C)NC(=O)[C@H](Cc3ccccc3)NC(=O)[C@H](C)NC(=O)[C@H](C)NC(=O)[C@H](CN(CC(=O)O)CC(F)(F)F)NC(=O)[C@H](CC(=O)O)NC1=O)NC(=O)[C@H](CC(C)(C)C)NC(=O)[C@H](CC(=O)O)NC2=O` (stereo partly drawn) [I-1682, Ac-PL3-Asp-Npg-B5-Asp-TfeGA-Ala-Ala-Phe-Leu-PyrS2-3Thi-BztA-Gln-Leuo1], the negative-log IC50 (pIC50) is 7.39.

On to `CC(=O)N1CCC[C@]12CC=CCCCC1(CCCC=CCCCOC(=O)N3CC[C@@](C(=O)N[C@@H](Cc4ccccc4Cl)C(=O)N[C@@H](Cc4csc5ccccc45)C(=O)N[C@@H](CCC(N)=O)C(N)=O)(C3)NC(=O)[C@H]([C@@H](C)O)NC(=O)[C@H](Cc3ccccc3)NC(=O)[C@H](C)NC(=O)CNC(=O)[C@H](CN(CC(=O)O)CC(F)(F)F)NC(=O)[C@H](CC(=O)O)NC1=O)NC(=O)[C@H](CC(C)(C)C)NC(=O)[C@H](CC(=O)O)NC2=O` (stereo partly drawn) [I-1690, Ac-PL3-Asp-Npg-B5-Asp-TfeGA-Gly-Ala-Phe-Thr-PyrS2-2C1F-BztA-Gln-NH2], for which the pIC50 is 7.96.

For `CC(=O)N1CCC[C@]12CCCCCCC1(CCCCCCCCOC(=O)N3CC[C@@](C(=O)N[C@@H](Cc4ccccc4Cl)C(=O)N[C@@H](Cc4csc5ccccc45)C(=O)N[C@@H](CCO)C(N)=O)(C3)NC(=O)[C@H](CCO)NC(=O)[C@H](Cc3ccccc3)NC(=O)[C@H](C)NC(=O)[C@H](C)NC(=O)[C@H](CN(CC(=O)O)CC(F)(F)F)NC(=O)[C@H](CC(=O)O)NC1=O)NC(=O)[C@H](CC(C)(C)C)NC(=O)[C@H](CC(=O)O)NC2=O` (stereo partly drawn) [I-1699, Ac-PL3-Asp-Npg-B5-Asp-TfeGA-Ala-Ala-Phe-Hse-PyrS2-2C1F-BztA-Hse-NH2], the pIC50 was 6.27.

As for `CC(=O)N1CCC[C@]12CC=CCCCC1(CCCC=CCCCOC(=O)N3CC[C@@](C(=O)N[C@@H](CC4CCCC4)C(=O)N[C@@H](Cc4csc5ccccc45)C(=O)N[C@@H](CCC(N)=O)C(N)=O)(C3)NC(=O)[C@H](CC(C)C)NC(=O)[C@H](Cc3ccccc3)NC(=O)[C@H](C)NC(=O)[C@H](C)NC(=O)[C@H](CN(CC(=O)O)CC(F)(F)F)NC(=O)[C@H](CC(=O)O)NC1=O)NC(=O)[C@H](CC(C)(C)C)NC(=O)[C@H](CC(=O)O)NC2=O` (stereo partly drawn) [I-1703, Ac-PL3-Asp-Npg-B5-Asp-TfeGA-Ala-Ala-Phe-Leu-PyrS2-CypA-BztA-Gln-NH2], the pIC50 was 7.62.

Take `CC(=O)N1CCC[C@]12CCCCCCC1(CCCCCCCCOC(=O)N3CC[C@@](C(=O)N[C@@H](Cc4ccccc4C#N)C(=O)N[C@@H](Cc4csc5ccccc45)C(=O)N[C@@H](CCC(N)=O)C(N)=O)(C3)NC(=O)[C@H](CC(C)C)NC(=O)[C@H](Cc3ccccc3)NC(=O)[C@H](C)NC(=O)[C@H](C)NC(=O)[C@H](CN(CC(=O)O)CC(F)(F)F)NC(=O)[C@H](CC(=O)O)NC1=O)NC(=O)[C@H](CC(C)(C)C)NC(=O)[C@H](CC(=O)O)NC2=O` (stereo partly drawn) [I-1712, Ac-PL3-Asp-Npg-B5-Asp-TfeGA-Ala-Ala-Phe-Leu-PyrS2-2CNF-BztA-Gln-NH2]: the pIC50 was 6.22.

For the molecule `CC(=O)N1CCC[C@]12CCCCCCC1(CCCCCCCCOC(=O)N3CC[C@@](C(=O)N[C@@H](Cc4ccsc4)C(=O)N[C@@H](Cc4csc5ccccc45)C(=O)N[C@@H](CC(N)=O)C(N)=O)(C3)NC(=O)[C@H](CC(C)C)NC(=O)[C@H](Cc3ccccc3)NC(=O)[C@H](C)NC(=O)[C@H](C)NC(=O)[C@H](CN(CC(=O)O)CC(F)(F)F)NC(=O)[C@H](CC(=O)O)NC1=O)NC(=O)[C@H](CC(C)(C)C)NC(=O)[C@H](CC(=O)O)NC2=O` (stereo partly drawn) [I-1715, Ac-PL3-Asp-Npg-B5-Asp-TfeGA-Ala-Ala-Phe-Leu-PyrS2-3Thi-BztA-Asn-NH2], the negative logarithm of the IC50 (pIC50) was 7.02.

Regarding `CC(=O)N1CCC[C@]12CCCCCCC1(CCCCCCCCOC(=O)N3CC[C@@](C(=O)N[C@@H](Cc4ccsc4)C(=O)N[C@@H](Cc4csc5ccccc45)C(=O)N[C@H](C(N)=O)[C@@H](C)O)(C3)NC(=O)[C@H](CC(C)C)NC(=O)[C@H](Cc3ccccc3)NC(=O)[C@H](C)NC(=O)[C@H](C)NC(=O)[C@H](CN(CC(=O)O)CC(F)(F)F)NC(=O)[C@H](CC(=O)O)NC1=O)NC(=O)[C@H](CC(C)(C)C)NC(=O)[C@H](CC(=O)O)NC2=O` (stereo partly drawn) [I-1716, Ac-PL3-Asp-Npg-B5-Asp-TfeGA-Ala-Ala-Phe-Leu-PyrS2-3Thi-BztA-Thr-NH2], the pIC50 is 6.65.

`CC(=O)N1CCC[C@]12CCCCCCC1(CCCCCCCCOC(=O)N3CC[C@@](C(=O)N[C@@H](Cc4ccsc4)C(=O)N[C@@H](Cc4csc5ccccc45)C(=O)N[C@@H](Cc4ccccc4C(N)=O)C(N)=O)(C3)NC(=O)[C@H](CC(C)C)NC(=O)[C@H](Cc3ccccc3)NC(=O)[C@H](C)NC(=O)[C@H](C)NC(=O)[C@H](CN(CC(=O)O)CC(F)(F)F)NC(=O)[C@H](CC(=O)O)NC1=O)NC(=O)[C@H](CC(C)(C)C)NC(=O)[C@H](CC(=O)O)NC2=O` (stereo partly drawn) [I-1717, Ac-PL3-Asp-Npg-B5-Asp-TfeGA-Ala-Ala-Phe-Leu-PyrS2-3Thi-BztA-2cbmf-NH2]: the pIC50 is 6.60.

On to `CC(=O)N1CCC[C@]12CCCCCCC1(CCCCCCCCOC(=O)N3CC[C@@](C(=O)N[C@@H](Cc4ccsc4)C(=O)N[C@@H](Cc4csc5ccccc45)C(=O)N[C@@H](Cc4cccc(C(N)=O)c4)C(N)=O)(C3)NC(=O)[C@H](CC(C)C)NC(=O)[C@H](Cc3ccccc3)NC(=O)[C@H](C)NC(=O)[C@H](C)NC(=O)[C@H](CN(CC(=O)O)CC(F)(F)F)NC(=O)[C@H](CC(=O)O)NC1=O)NC(=O)[C@H](CC(C)(C)C)NC(=O)[C@H](CC(=O)O)NC2=O` (stereo partly drawn) [I-1718, Ac-PL3-Asp-Npg-B5-Asp-TfeGA-Ala-Ala-Phe-Leu-PyrS2-3Thi-BztA-3cbmf-NH2], for which the negative-log IC50 (pIC50) was 6.42.

Consider `CC(=O)NCCCC[C@H](NC(=O)[C@H](Cc1csc2ccccc12)NC(=O)[C@H](Cc1ccsc1)NC(=O)[C@]12CCN(C1)C(=O)OCCCCCCCCC1(CCCCCC[C@]3(CCCN3C(C)=O)C(=O)N[C@@H](CC(=O)O)C(=O)N[C@@H](CC(C)(C)C)C(=O)N1)C(=O)N[C@@H](CC(=O)O)C(=O)N[C@@H](CN(CC(=O)O)CC(F)(F)F)C(=O)N[C@@H](C)C(=O)N[C@@H](C)C(=O)N[C@@H](Cc1ccccc1)C(=O)N[C@@H](CC(C)C)C(=O)N2)C(N)=O` (stereo partly drawn) [I-1719, Ac-PL3-Asp-Npg-B5-Asp-TfeGA-Ala-Ala-Phe-Leu-PyrS2-3Thi-BztA-AcLys-NH2], for which the negative-log IC50 (pIC50) was 6.73.

On to `CC(=O)N1CCC[C@]12CCCCCCC1(CCCCCCCCOC(=O)N3CC[C@@](C(=O)N[C@@H](Cc4ccsc4)C(=O)N[C@@H](Cc4csc5ccccc45)C(=O)N[C@@H](C)C(N)=O)(C3)NC(=O)[C@H](CC(C)C)NC(=O)[C@H](Cc3ccccc3)NC(=O)[C@H](C)NC(=O)[C@H](C)NC(=O)[C@H](CN(CC(=O)O)CC(F)(F)F)NC(=O)[C@H](CC(=O)O)NC1=O)NC(=O)[C@H](CC(C)(C)C)NC(=O)[C@H](CC(=O)O)NC2=O` (stereo partly drawn) [I-1720, Ac-PL3-Asp-Npg-B5-Asp-TfeGA-Ala-Ala-Phe-Leu-PyrS2-3Thi-BztA-Ala-NH2], for which the negative logarithm of the IC50 (pIC50) is 6.67.

As for `CC(=O)N1CCC[C@]12CC=CCCCC1(CCCC=CCCCOC(=O)N3CC[C@@](C(=O)N[C@@H](Cc4ccccc4Cl)C(=O)N[C@@H](Cc4csc5ccccc45)C(=O)N[C@@H](CCC(N)=O)C(N)=O)(C3)NC(=O)[C@H](CC(N)=O)NC(=O)[C@H](Cc3ccccc3N)NC(=O)[C@H](C)NC(=O)[C@H](C)NC(=O)[C@H](CC(=O)O)NC(=O)[C@H](CC(=O)O)NC1=O)NC(=O)[C@H](CC(C)(C)C)NC(=O)[C@H](CC(=O)O)NC2=O` (stereo partly drawn) [I-1727, Ac-PL3-Asp-Npg-B5-Asp-Asp-Ala-Ala-2NH2F-Asn-PyrS2-2C1F-BztA-Gln-NH2], the pIC50 is 7.55.

For `CC(=O)N1CCC[C@]12CC=CCCCC1(CCCC=CCCCOC(=O)N3CC[C@@](C(=O)N[C@@H](Cc4ccsc4)C(=O)N[C@@H](Cc4csc5ccccc45)C(=O)N[C@@H](CCC(N)=O)C(N)=O)(C3)NC(=O)[C@H](CC(N)=O)NC(=O)[C@H](Cc3ccccc3N)NC(=O)[C@H](C)NC(=O)[C@H](C)NC(=O)[C@H](CC(=O)O)NC(=O)[C@H](CC(=O)O)NC1=O)NC(=O)[C@H](CC(C)(C)C)NC(=O)[C@H](CC(=O)O)NC2=O` (stereo partly drawn) [I-1728, Ac-PL3-Asp-Npg-B5-Asp-Asp-Ala-Ala-2NH2F-Asn-PyrS2-3Thi-BztA-Gln-NH2], the pIC50 is 7.85.
